Laboratory results: patent publication US12275729B2 (Merck Sharp & Dohme LLC, priority 2017, dated 2025)

molecular target: IDO1 (Homo sapiens, UniProt P14902); experiment: IDO1 Cellular Assay in HeLa Cells Stimulated with IFNγ; type: cell-based; settings: about 48 hours, read-out: Hela IC50
Sequence (P14902 whole entry): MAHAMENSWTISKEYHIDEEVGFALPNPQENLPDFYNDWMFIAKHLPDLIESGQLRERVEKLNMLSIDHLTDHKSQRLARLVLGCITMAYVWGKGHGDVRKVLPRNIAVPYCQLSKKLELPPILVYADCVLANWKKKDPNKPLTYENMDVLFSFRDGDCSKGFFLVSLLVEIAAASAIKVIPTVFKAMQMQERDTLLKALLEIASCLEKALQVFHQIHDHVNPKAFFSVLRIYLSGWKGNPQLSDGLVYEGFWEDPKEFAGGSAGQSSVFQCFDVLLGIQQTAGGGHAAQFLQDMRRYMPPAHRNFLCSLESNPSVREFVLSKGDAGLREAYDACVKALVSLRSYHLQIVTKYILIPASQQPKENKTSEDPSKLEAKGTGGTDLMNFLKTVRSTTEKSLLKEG

| IC50 [µM] | SMILES |
| --- | --- |
| 0.0109 | C[C@H](C(=O)Nc1ccc(F)cc1)c1ccc2c(c1)CCCN2C(=O)CC1CC1 [Example 82, (2S)-2-[1-(cyclopropylacetyl)-1,2,3,4-tetrahydroquinolin-6-yl]-N-(4-fluorophenyl)propanamide] |
| 0.0384 | Cc1n[nH]c(C(=O)N2CCCc3cc(C(C)C(=O)Nc4ccc(F)cc4)ccc32)n1 (stereo not drawn) [Example 42, N-(4-fluorophenyl)-2-[1-(3-methyl-1H-1,2,4-triazole-5-carbonyl)-1,2,3,4-tetrahydroquinolin-6-yl]propanamide] |
| 0.825 | CC(NC(=O)c1ccc(F)cc1)c1ccc2c(n1)C(=O)CCN2C(=O)C1CC1 (stereo not drawn) [Example 192, N-(1-(5-(cyclopropanecarbonyl)-8-oxo-5,6,7,8-tetrahydro-1,5-naphthyridin-2-yl)ethyl)-4-fluorobenzamide] |
| 0.0355 | CC(NC(=O)c1ccc(F)cc1)c1ccc2c(n1)CCCN2C(=O)C1CCOCC1 (stereo in doubt) [Example 146, 4-fluoro-N-{(1R)-1-[5-(oxane-4-carbonyl)-5,6,7,8-tetrahydro-1,5-naphthyridin-2-yl]ethyl}benzamide] |
| 0.005 | CC(C)C(=O)N1CCCc2cc(C(C)C(=O)Nc3ccc(F)cc3)ccc21 (stereo not drawn) [Example 40, N-(4-fluorophenyl)-2-[1-(2-methylpropanoyl)-1,2,3,4-tetrahydroquinolin-6-yl]propanamide] |
| 0.0094 | C[C@H](C(=O)Nc1ccc(F)cn1)c1ccc2c(c1)CCCN2C(=O)C1CC1 (single isomer, unassigned) [Example 61] |
| 0.0139 | O=C(NC1(c2ccc3c(n2)CCCN3c2ccccn2)CC1)c1ccc(F)cc1 [Example 247, 4-fluoro-N-(1-(5-(pyridin-2-yl)-5,6,7,8-tetrahydro-1,5-naphthyridin-2-yl)cyclopropyl)benzamide] |
| 0.0671 | O=C(Nc1ccc(F)cn1)C1(c2ccc3c(c2)CCCN3S(=O)(=O)N2CCCC2)CCC1 [Example 122, N-(5-fluoropyridin-2-yl)-1-{1-[(pyrrolidin-1-yl)sulfonyl]-1,2,3,4-tetrahydroquinolin-6-yl}cyclobutane-1-carboxamide] |
| 0.0058 | CC(C(=O)Nc1ccc(F)cc1)c1ccc2c(c1)CCCN2C(=O)C1CC1 (stereo not drawn) [Example 36, 2-[1-(cyclopropanecarbonyl)-1,2,3,4-tetrahydroquinolin-6-yl]-N-(4-fluorophenyl)propanamide] |
| 0.017 | CC(NC(=O)c1ccc(F)cc1)c1ccc2c(n1)CCCN2c1cc(C(F)(F)F)ncn1 (stereo not drawn) [Example 235, 4-fluoro-N-(1-{5-[6-(trifluoromethyl)pyrimidin-4-yl]-5,6,7,8-tetrahydro-1,5-naphthyridin-2-yl}ethyl)benzamide] |
| 0.105 | C[C@H](C(=O)Nc1ccc(F)cc1)c1ccc2c(c1)CCCN2C(=O)CC(F)(F)F [Example 91, (2S)-N-(4-fluorophenyl)-2-[1-(3,3,3-trifluoropropanoyl)-1,2,3,4-tetrahydroquinolin-6-yl]propanamide] |
| 0.003 | Cc1cccc(C(=O)N2CCCc3nc(C(C)NC(=O)c4ccc(F)cc4)ccc32)n1 (stereo not drawn) [Example 281, 2-(1-(4-fluorobenzamido)ethyl)-5-(6-methylpicolinoyl)-5,6,7,8-tetrahydro-1,5-naphthyridin-1-ium 2,2,2-trifluoroacetate] |

same assay, conditions: read-out: Hela IC50

| IC50 [µM] | SMILES |
| --- | --- |
| 0.0243 | CC(NC(=O)c1ccc(F)cc1)c1ccc2c(n1)CCCN2C(=O)OCCc1ccc(Cl)c(Cl)c1 (stereo not drawn) [Example 326, 3,4-dichlorophenethyl 6-(1-(4-fluorobenzamido)ethyl)-3,4-dihydro-1,5-naphthyridine-1(2H)-carboxylate] |
| 0.697 | CC(NC(=O)c1ccc(F)cc1)c1ccc2c(n1)CCCN2c1cc2n(n1)CCC2 (stereo not drawn) [Example 369, N-(1-(5-(5,6-dihydro-4H-pyrrolo[1,2-b]pyrazol-2-yl)-5,6,7,8-tetrahydro-1,5-naphthyridin-2-yl)ethyl)-4-fluorobenzamide] |
| 0.013 | COc1cc(N2CCCc3nc(C(C)NC(=O)c4ccc(F)cc4)ccc32)ncn1 (stereo not drawn) [Example 379, 4-fluoro-N-(1-(5-(6-methoxypyrimidin-4-yl)-5,6,7,8-tetrahydro-1,5-naphthyridin-2-yl)ethyl)benzamide] |
